In patent publication US7750155B2, “Pyrazinyl hydroxyacrylamide compounds having an inhibitory effect on the activity of histone deacetylase” (Astellas Pharma Inc., priority 2006, dated 2010):

What was measured:
[1] = tested on: T1, human histone deacetylase partially purified from human T cell leukemia Jurkat cells; test: Test 1: Determination of histone deacetylase inhibitor activity ([3H]acetyl histone deacetylation); format: biochemical; details: partially purified human HDAC from Jurkat cells, [3H]acetyl histone substrate, 25° C., 30 minutes; read-out: Test 1: HDAC inhibitory activity IC50
T1 construct: The human histone deacetylase was partially purified from human T cell leukemia Jurkat cells
Experimental: Test 1: Determination of Histone Deacetylase Inhibitor Activity
The partial purification of human histone deacetylase, the preparation of [^3H] acetyl histones, and the assay for histone deacetylase activity were performed basically according to the method as proposed by Yoshida et al. as follows.
Partial Purification of Human Histone Deacetylase
The human histone deacetylase was partially purified from human T cell leukemia Jurkat cells. Jurkat cells (5×10^8 cells) were suspended in 40 mL of the HDA buffer consisting of 15 mM potassium phosphate, pH 7.5, 5% glycerol and 0.2 mM EDTA. After homogenization, nuclei were collected by centrifugation (35,000×g, 10 min) and homogenized in 20 mL of the same buffer supplemented with 1 M (NH4)2SO4. The viscous homogenate was sonicated and clarified by centrifugation (35,000×g, 10 min), and the deacetylase was precipitated by raising the concentration of (NH4)2SO4 to 3.5 M. The precipitated protein was dissolved in 10 mL of the HDA buffer and dialyzed against 4 liters of the same buffer. The dialyzate was then loaded onto a DEAE-cellulose (Whatman DE52) column (25×85 mm) equilibrated with the same buffer and eluted with 300 mL of a linear gradient (0-0.6 M) of NaCl. A single peak of histone deacetylase activity appeared between 0.3 and 0.4 M NaCl.
Preparation of [^3H] Acetyl Histone
To obtain [^3H] acetyl-labeled histone as the substrate for the histone deacetylase assay, 1×10^8 cells of Jurkat in 20 mL of RPMI-1640 medium (supplemented with 10% FBS, penicillin (50 units/mL) and streptomycin (50 μg/mL)) were incubated with 300 MBq [^3H] sodium acetate in the presence of 5 mM sodium butyrate for 30 minutes in 5% CO2-95% air atmosphere at 37° C. in a […] flask, harvested into a centrifuge tube (50 mL), collected by centrifugation at 1000 rpm for 10 minutes, and washed once with phosphate-buffered saline. The washed cells were suspended in 15 mL of ice-cold lysis buffer (10 mM Tris-HCl, 50 mM sodium bisulfite, 1% Triton X-100, 10 mM MgCl2, 8.6% sucrose, pH 6.5). After Dounce homogenization (30 stroke), the nuclei were collected by centrifugation at 1000 rpm for 10 minutes, washed 3 times with 15 mL of the lysis buffer, and once with 15 mL of ice-cooled washing buffer (10 mM Tris-HCl, 13 mM EDTA, pH 7.4) successively. The pellet was suspended in 6 mL of ice-cooled water using a mixer, and 68 μl of H2SO4 was added to the suspension to give a concentration of 0.4 N. After incubation at 4° C. for 1 hour, the suspension was centrifuged for 5 minutes at 15,000 rpm, and the supernatant was taken and mixed with 60 mL of acetone. After overnight incubation at −20° C., the coagulated material was collected by microcentrifugation, air-dried, and stored at −80° C.
Assay for Histone Deacetylase Activity
For the standard assay, 10 μl of [^3H] acetyl-labeled histones were added to 90 μl of the enzyme fraction, and the mixture was incubated at 25° C. for 30 minutes. The reaction was stopped by addition of 10 μl of HCl. The released [^3H] acetic acid was extracted with 1 mL of ethyl acetate, and 0.9 mL of the solvent layer was taken into 10 mL of toluene scintillation solution for determination of radioactivity.

[2] = tested on: splenic cells of Lewis rats (T lymphocyte blastogenesis); test: Test 2: T-cell growth inhibitor activity (T lymphocyte blastogenesis, Concanavalin A, AlamarBlue); format: cell-based; details: Lewis rat splenic cells, Concanavalin A 1 μg/mL, 72 hours, read-out: Test 2: T-cell growth inhibitory activity IC50
Experimental: Test 2: Determination of T-Cell Growth Inhibitor Activity
The T lymphocyte blastogenesis test was performed in microtiter plates with each well containing 1.5×10^5 splenic cells of Lewis rats in 0.1 mL RPMI-1640 medium supplemented with 10% fetal bovine serum (FBS), […] 2-mercaptoethanol, penicilln (100 units/mL) and streptomycin (100 μg/mL), to which Concanavalin A (1 μg/mL) was added. The cells were incubated at 37° C. in a humidified atmosphere of 5% CO2 for 72 hours. After the culture period, suppressive activities of the test compounds in T lymphocyte blastogenesis were quantified by AlamarBlue (trademark) Assay. The test samples were dissolved in DMSO and further diluted with RPMI-1640 medium and added to the culture. The activities of the test compounds were expressed as IC50.

[3] = tested on: blood corpuscles (platelet, white blood corpuscle); test: Test 4: Measurement of change rate of blood corpuscles; format: in vivo; details: 4 mg/kg oral once a day for 14 days, male LEW rats, blood 24 hr after last administration
Experimental: Test 4: Measurement of Change Rate of Blood Corpuscles Experimental drugs were oral administered to rats (male LEW) once a day for continuous 14 days. The blood sample contained heparin and EDTA were collected at 24 hr after last administration, and the number of differential blood corpuscles were measured by auto-hemocytometer (Sysmex).

IC50 [1] [nM]	decrease rate (%) platelet [3] [%]	Compound	IC50 [2] [nM]	decrease rate (%) white blood corpuscle [3] [%]
2.3	18.3	Cl.Cl.O=C(/C=C/c1cnc(N[C@@H]2CCN(CCc3cccc(F)c3)C2)cn1)NO [Example 1, (2E)-3-[5-({(3R)-1-[2-(3-fluorophenyl)ethyl]-3-pyrrolidinyl}amino)-2-pyrazinyl]-N-hydroxyacrylamide dihydrochloride]	2.4	43.7
3.3	9.4	Cl.Cl.O=C(/C=C/c1cnc(N[C@@H]2CCN(CCc3ccc(F)c(F)c3)C2)cn1)NO [Example 5, (2E)-3-[5-({(3R)-1-[2-(3,4-difluorophenyl)ethyl]-3-pyrrolidinyl}amino)-2-pyrazinyl]-N-hydroxyacrylamide dihydrochloride]	0.93	40.3
1.7	24.3	Cl.Cl.O=C(/C=C/c1cnc(N[C@@H]2CCCN(CCc3cccc(F)c3)C2)cn1)NO [Example 6, (2E)-3-[5-({(3R)-1-[2-(3-fluorophenyl)ethyl]-3-piperidinyl}amino)-2-pyrazinyl]-N-hydroxyacrylamide dihydrochloride]	0.65	72.2
2.2	3.4	COc1ccc(CCN2CC[C@@H](Nc3cnc(/C=C/C(=O)NO)cn3)C2)cc1.Cl.Cl [Example 18, (2E)-N-hydroxy-3-[5-({(3R)-1-[2-(4-methoxyphenyl)ethyl]-3-pyrrolidinyl}amino)-2-pyrazinyl]acrylamide dihydrochloride]	2.2	31.7
1.6	14.2	Cl.Cl.O=C(/C=C/c1cnc(N[C@@H]2CCN(CCc3ccc(Br)cc3)C2)cn1)NO [Example 19, (2E)-3-[5-({(3R)-1-[2-(4-bromophenyl)ethyl]-3-pyrrolidinyl}amino)-2-pyrazinyl]-N-hydroxyacrylamide dihydrochloride]	1.3	38.1
2	18.6	Cl.Cl.O=C(/C=C/c1cnc(N[C@@H]2CCN(CCc3ccc(Cl)cc3)C2)cn1)NO [Example 23, (2E)-3-[5-({(3R)-1-[2-(4-chlorophenyl)ethyl]-3-pyrrolidinyl}amino)-2-pyrazinyl]-N-hydroxyacrylamide dihydrochloride]	1.7	64.6
1.8	6.2	Cl.Cl.O=C(/C=C/c1cnc(N[C@@H]2CCCN(CCC3CCCCC3)C2)cn1)NO [Example 25, (2E)-3-(5-{[(3R)-1-(2-cyclohexylethyl)-3-piperidinyl]amino}-2-pyrazinyl)-N-hydroxyacrylamide dihydrochloride]	2.2	63.1
